Measurements taken from EP1632243A1 (priority 2003, dated 2004).
≈ marks a conversion by molar mass, not a printed value. Where two headings read alike, the source gives them in different places. Residues, ends and D or L forms follow the SMILES beside them.

Tests used:
MT-4 cells = assay: Cytotoxicity to MT-4 cells, MTT method; type: cell-based; conditions: 12000ng/ml to 24ng/ml, 6 days
Method: Then test drugs were added. […] Cell growth was subsequently determined by the MTT method.

in vitro = conditions: human, 293 cells

Compound | half-inhibitory concentration (IC50) (No.04 coronavirus) [µg/mL] | inhibition of coronavirus in 293 cell cultures (No.04 coronavirus) | minimum inhibitory concentration (MIC) (No.04 coronavirus) [µg/mL] | treatment index (TI) (No.04 coronavirus) | cell growth (MT-4 cells) | CC50 at 144 h (in vitro) [µg/mL] | MNTC at 144 h (in vitro) [µg/mL] | half-inhibitory concentration (IC50) (No.04 coronavirus; 24 h) [µg/mL] | minimum inhibitory concentration (MIC) (No.04 coronavirus; 24 h) [µg/mL]
AP-1: high-affinity peptide antagonist targeting HAb18G/CD147, amino acid sequence SEQ ID NO:3 (MTHDPVISLPTT) | 31.25 ± 0 | capable of inhibiting coronavirus | 62.25 ± 0 | 16 | not affected | – | – | – | –
Nc1nc(O)c2ncn(COC(CO)CO)c2n1 [Ganciclovir, ganciclovir] | – | – | – | – | – | > 6000 | > 6000 | – | –
CC(C)C[C@H](NC(=O)[C@H](CCCCN)NC(=O)[C@@H](N)Cc1ccc(O)cc1)C(=O)N1CCC[C@H]1C(=O)NCC(=O)N[C@@H](Cc1c[nH]cn1)C(=O)N[C@@H](Cc1c[nH]cn1)C(=O)N[C@@H](Cc1c[nH]cn1)C(=O)N[C@@H](Cc1c[nH]cn1)C(=O)N[C@@H](Cc1ccc(O)cc1)C(=O)N[C@@H](CCCNC(=N)N)C(=O)N1CCC[C@H]1C(=O)O [AP-9] (H-YKLPGHHHHYRP-OH; N-terminus and C-terminus assumed) | – | capable of inhibiting coronavirus | – | 32 | not affected | – | – | 15.6 ± 0 | 31.3 ± 0 (≈ 0.0203 mM)
AP-6: high-affinity peptide antagonist targeting HAb18G/CD147, amino acid sequence SEQ ID NO:8 (YPFHHKHWHRPN) | 31.25 ± 0 | capable of inhibiting coronavirus | 62.25 ± 0 | 16 | not affected | – | – | – | –
